Data from ChEMBL document CHEMBL1201862, “PubChem BioAssay data set” (2004).
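These data come from cells grown in 96-well plates and exposed to compound for 48 hours at five concentrations. Here, GI50 denotes the concentration required for 50% inhibition of growth.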 Activity calls are given as the source filed them. Rule as the data show it: active = GI50 up to about 1.1 µM and inactive = higher.

Columns and labels:
Assay in all cases: inhibition of tumour cell growth, NCI panel, 48 h
[1] = test system: KM12
[2] = test system: SK-MEL-28
[3] = test system: UACC-62
[4] = test system: MDA-MB-435
[5] = test system: HCT-15
[6] = test system: OVCAR-5
[7] = test system: UACC-257
[8] = test system: HCT-116
[9] = test system: 786-0
[10] = test system: MDA-N
[11] = test system: NCI-H522
[12] = test system: SNB-75
[13] = test system: HL-60
[14] = test system: OVCAR-8
[15] = test system: NCI-H460
[16] = test system: SK-OV-3
[17] = test system: CAKI-1
[18] = test system: SN12C
[19] = test system: M14
[20] = test system: HCC 2998

SMILES | GI50 [1] | GI50 [2] | GI50 [3] | GI50 [4] | GI50 [5] | GI50 [6] | GI50 [7] | GI50 [8] | GI50 [9] | GI50 [10] | GI50 [11] | GI50 [12] | GI50 [13] | GI50 [14] | GI50 [15] | GI50 [16] | GI50 [17] | GI50 [18] | GI50 [19] | GI50 [20]
Nc1nc(N)c(N=Nc2ccc([As](=O)(O)O)c(O)c2)c(N)n1 | 28.8 µM (inactive) | > 100 µM (inactive) | 31.5 µM (inactive) | 0.82 µM (active) | 37.6 µM | > 100 µM (inactive) | 91.6 µM (inactive) | 7.24 µM (inactive) | 20 µM (inactive) | 0.839 µM (active) | 3.5 µM (inactive) | 11.5 µM (inactive) | 2.96 µM (inactive) | 13.7 µM (inactive) | 6.12 µM (inactive) | 36.4 µM (inactive) | 58.3 µM (inactive) | 12.1 µM (inactive) | 35.6 µM (inactive) | 
O=C1Nc2ccccc2/C1=N/Nc1nc(-c2ccc(Br)cc2)cs1 | 30.3 µM (inactive) | 12.6 µM (inactive) | 20.6 µM (inactive) | 36.5 µM (inactive) | 19.4 µM | 23.8 µM (inactive) | 22.7 µM (inactive) | 26.7 µM (inactive) | 17.3 µM (inactive) | 41.5 µM (inactive) | 25.9 µM (inactive) | 19.7 µM (inactive) |  | 19.5 µM (inactive) | 21.4 µM (inactive) | 23.7 µM (inactive) | 18.6 µM (inactive) | 27.1 µM (inactive) | 21.8 µM (inactive) | 31.8 µM (inactive)
CC1(C)OC[C@@]2([C@@H]3CC[C@@H](C3)C2(C)C)N1O | > 100 µM (inactive) | 46.9 µM (inactive) | > 100 µM (inactive) | > 100 µM (inactive) | > 100 µM | > 100 µM (inactive) | > 100 µM (inactive) | > 100 µM (inactive) | > 100 µM (inactive) | > 100 µM (inactive) | 62.1 µM (inactive) | > 100 µM (inactive) | > 100 µM (inactive) | > 100 µM (inactive) | > 100 µM (inactive) | > 100 µM (inactive) | > 100 µM (inactive) | > 100 µM (inactive) | > 100 µM (inactive) | 
O=[N+]([O-])c1cccc(/N=C2\c3ccccc3CN2c2cccc([N+](=O)[O-])c2)c1 | > 100 µM (inactive) | > 100 µM (inactive) | > 100 µM (inactive) | > 100 µM (inactive) | > 100 µM | > 100 µM (inactive) | > 100 µM (inactive) | > 100 µM (inactive) | 50.7 µM (inactive) | > 100 µM (inactive) | > 100 µM (inactive) | 24.8 µM (inactive) |  | > 100 µM (inactive) | > 100 µM (inactive) | > 100 µM (inactive) | > 100 µM (inactive) | > 100 µM (inactive) | > 100 µM (inactive) | > 100 µM (inactive)
CS(=O)(=O)NC12CCC(c3ccccc31)c1ccccc12 | > 100 µM (inactive) | > 100 µM (inactive) | > 100 µM (inactive) | > 100 µM (inactive) | > 100 µM | > 100 µM (inactive) |  | > 100 µM (inactive) | > 100 µM (inactive) | > 100 µM (inactive) | > 100 µM (inactive) | > 100 µM (inactive) | > 100 µM (inactive) |  | > 100 µM (inactive) | > 100 µM (inactive) | > 100 µM (inactive) | > 100 µM (inactive) | > 100 µM (inactive) | 
Cc1nn(-c2ccccc2)c2c1C(c1cc3ccccc3nc1Cl)NC(=O)N2 (centres undefined) | 21.2 µM (inactive) |  | 19 µM (inactive) | 23.9 µM (inactive) | 19.8 µM | 22.5 µM (inactive) | 27.7 µM (inactive) | 23.8 µM (inactive) | 16.7 µM (inactive) | 18.5 µM (inactive) | 16.5 µM (inactive) | 18.9 µM (inactive) | 5.81 µM (inactive) | 19.3 µM (inactive) | 30.8 µM (inactive) | 20.1 µM (inactive) | 34.4 µM (inactive) | 24.4 µM (inactive) | 19.6 µM (inactive) | 
FC(F)(F)c1cnc(N/N=C(/c2ccccc2)c2ccccn2)c(Cl)c1 | 5.14 µM (inactive) | 11.4 µM (inactive) | 8.75 µM (inactive) | 6.87 µM (inactive) | 1.98 µM | 6.87 µM (inactive) | 2.49 µM (inactive) | 3.26 µM (inactive) | 4.12 µM (inactive) | 23.8 µM (inactive) | 1.9 µM (inactive) | 6.25 µM (inactive) |  | 2.39 µM (inactive) | 3.27 µM (inactive) | 4.76 µM (inactive) | 5.85 µM (inactive) | 7.52 µM (inactive) | 3.78 µM (inactive) | 5.92 µM (inactive)
COc1ccc2oc(=O)c(-c3csc(-c4ccccc4)n3)cc2c1 | > 100 µM (inactive) | > 100 µM (inactive) | 34.5 µM (inactive) | > 100 µM (inactive) | > 100 µM | > 100 µM (inactive) | > 100 µM (inactive) | 35.6 µM (inactive) | 17.9 µM (inactive) | > 100 µM (inactive) |  | 37.3 µM (inactive) | > 100 µM (inactive) |  | 54 µM (inactive) | 17.3 µM (inactive) | > 100 µM (inactive) |  | > 100 µM (inactive) | 95.7 µM (inactive)
O=c1c2ccccc2nc2sc(/N=C/C=C/c3ccccc3)nn12 | > 100 µM (inactive) | > 100 µM (inactive) | > 100 µM (inactive) | > 100 µM (inactive) | > 100 µM | > 100 µM (inactive) | > 100 µM (inactive) | > 100 µM (inactive) | > 100 µM (inactive) | > 100 µM (inactive) | > 100 µM (inactive) | > 100 µM (inactive) |  | > 100 µM (inactive) | > 100 µM (inactive) | > 100 µM (inactive) | > 100 µM (inactive) | > 100 µM (inactive) | > 100 µM (inactive) | > 100 µM (inactive)
COC(=O)C(Cc1c(-c2[nH]c3ccccc3c2CC(NC(C)=O)C(=O)OC)[nH]c2ccccc12)NC(C)=O (centres undefined) | > 100 µM (inactive) | > 100 µM (inactive) | > 100 µM (inactive) | > 100 µM (inactive) | > 100 µM | > 100 µM (inactive) | > 100 µM (inactive) | > 100 µM (inactive) | > 100 µM (inactive) | > 100 µM (inactive) | 16.3 µM (inactive) | 92 µM (inactive) | > 100 µM (inactive) | > 100 µM (inactive) | > 100 µM (inactive) | > 100 µM (inactive) | > 100 µM (inactive) | > 100 µM (inactive) | > 100 µM (inactive) | 
Cc1ncc(COP(=O)(O)O)c(/C=C2\SC(=S)NC2=O)c1O | > 100 µM (inactive) | > 100 µM (inactive) | > 100 µM (inactive) | > 100 µM (inactive) | > 100 µM | > 100 µM (inactive) | > 100 µM (inactive) | > 100 µM (inactive) | > 100 µM (inactive) | > 100 µM (inactive) | > 100 µM (inactive) | > 100 µM (inactive) |  | > 100 µM (inactive) | > 100 µM (inactive) | > 100 µM (inactive) | > 100 µM (inactive) | > 100 µM (inactive) | > 100 µM (inactive) | > 100 µM (inactive)
